Data on two substances can be found in patent US20160000938A1, “REAGENT FOR DIAGNOSIS OF OSTEOARTHRITIS COMPRISING PEPTIDE PROBE OF APOPEP-1” (priority 2013, published 2016).

“Also recorded” adds a separate entry of the source.

Assay [1] has as its system apoptotic chondrocytes of DMM-operated articular cartilage. The assay can be described thus: In situ immunofluorescence staining and TUNEL assay of OA cartilage cryo-sections. The arrangement: species or system mice. The method, then:
Hind limbs of mice were fixed with 4% paraformaldehyde in 0.1 M phosphate-buffered saline (PBS, pH 7.4) for 12 hours, and decalcified with 10% ethylene-diamine tetraacetic acid (EDTA, pH 7.4) for 3 weeks. Decalcified tissues were dipped in 20% sucrose/PBS solution overnight and embedded in OCT compound (Tissue-Tek) for making the frozen samples. Frozen samples were cut at 10 μm thickness from femur to tibia range for joint visible. Cut slices from each animal were selected for the staining with same primary antibodies to comparison at the same area of joint articular cartilage. The section was treated with a blocking solution (0.1% tween-20, 1% bovine serum albumin (BSA), 5% normal donkey serum in PBS) after washing with PBS, and then incubated at 4° C. 1 h with the primary antibodies such as rabbit polyclonal collagen 2 antibody (1:200; abcam, MA, USA), mouse monoclonal MMP-13 antibody (1:200; abcam, MA, USA). After PBS rinses, the sections were incubated with Alexa-594 or Alexa-488-conjugated secondary antibody for 30 min. Thereafter, the sections were incubated with 4′,6′-diamidino-2-phenylindole (DAPI, Sigma-Aldrich, St Louis, Mo., USA) for nuclear staining then mounted with a ProLong® Antifade Kit (Invitrogen, USA). […]

The subject of assay [2] is ATDC5 chondrocyte cell treated with staurosporine. The assay can be described thus: In vitro binding to apoptotic chondrocytes (immunocytochemistry). It counts as cell-based. To be noted: fluorescence staining; for binding to apoptotic cells: chondrocytes treated with staurosporine; for binding to live cells: live chondrocytes. The procedure: ATDC5 chondrocyte cell was maintained in a mixture of DMEM and Ham's F-12 (DMEM/F12) medium (Lonza, USA) containing 5% fetal bovine serum (FBS) (Gibco-BRL, USA), 10 ug/ml of human transferrin (Sigma) and 3×10^-8 M of sodium selenite (Sigma) and penicillin/streptomycin. Apoptosis was induced by incubating cells with 0.5 uM Staurosporine (cell signaling, USA) for the indicated time periods. Apoptotic stages were determined by staining the cells with annexin V and ApoPep-1 conjugated with flamma 675. For immunocytochemistry staining, cells were incubated with 1% bovine serum albumin at 37° C. for 30 min for blocking and then binding with 10 μM flamma 675-conjugated peptide at 4° C. for 1 h. Cells were then costained with Alexa-594-annexin V (Invitrogen, Carlsbad, Calif., USA) for 15 min at room temperature in binding buffer (10 mM HEPES, pH 7.4, 140 mM NaCl, and 2.5 mM CaCl2). After fixation, cells were incubated with DAPI for nuclear staining and mounted with a ProLong® Antifade Kit.

In assay [3] the test system is arthritic joints of DMM mice. The assay can be described thus: Ex vivo optical imaging of extracted hind limbs of DMM mice. It counts as in vivo, C57BL/6N mice. The method, then:
(§1) Male mice at 12 weeks of age were divided into three groups: Sham-ApoPep-1, OA-Control Peptide and OA-ApoPep-1 group (n=4-8/group). For OA model, we performed DMM surgery as described in previous studies (8, 23).
(§2) FlammaTM675-ApoPep-1 was intravenously (i.v.) injected from the tail vain (1 mM 100 μl/20 g) and allowed to circulate for the indicated time periods. In vivo optical imaging was conducted by scanning the mice under anesthesia by inhalation of isofluran (jw pharmaceutical, South Korea) in 80% N2O/20% O2 using Optix Explore (ART, Montreal, Canada). The excitation/emission wavelengths for FlammaTM675 were 676 nm/704 nm. Ex vivo optical imaging was performed with extracted hind limbs by the same method. FlammaTM675-NSSSVDK was used as the control peptide (18).

The subject of assay [4] is arthritic joints of DMM mice. The assay can be described thus: In vivo optical imaging of fluorescence-labeled ApoPep-1 probe in DMM OA mice. The arrangement: species or system C57BL/6N mice. Particulars: for OARSI grade of OA at which the probe detects OA / apoptotic chondrocytes: DMM model. The method, then: as §1, §2

Take CQRPPR [ApoPep-1]: the “correlation of TUNEL staining with ApoPep-1 signals” value in assay [1] (DMM models 2 weeks after surgery) is recorded as “strongly correlated”. Moreover, the “localisation of ApoPep-1 relative to type II collagen and MMP13” value in assay [1] (DMM-operated articular cartilage, 2 weeks after surgery) was “detected where type II collagen decreased and MMP13 increased”. Besides, in assay [2], the “binding to apoptotic cells” value is recorded as “bind to apoptotic cells”. Moreover, the “binding to live cells” value in assay [2] is “not to live cells”. Also, the “ApoPep-1 fluorescent signal from arthritic joints” value in assay [3] (4 weeks after DMM operation) is listed as “maximal”; in assay [4] (in vivo, i.v. injection, 4 weeks after DMM operation), “maximal”. For the same substance, the “ApoPep-1 fluorescent signal from arthritic joints compared with sham-ApoPep-1 and OA-control-Peptide groups” value in assay [3] (two weeks after DMM operation) is recorded as “significant increase”; in assay [4] (in vivo, i.v. injection, one week after DMM operation) it was “no significant difference”; in assay [4] (in vivo, i.v. injection, two weeks after DMM operation), “detected strongly; also recorded: significant increase”. For the same substance, in assay [4] (DMM OA model), the “time after DMM operation at which the probe can detect apoptotic change” value worked out at 2 weeks. For the same substance, the results for the “OARSI grade of OA at which the probe detects OA / apoptotic chondrocytes” value in assay [4] and in assay [4] (listed as ApoPep1) were “grade I OA; also recorded: Grades I” and “Grade II”, respectively. In addition, the “ApoPep-1 fluorescent signal from arthritic joints compared with 4 weeks” value in assay [4] (i.v. injection, 8 weeks after DMM operation) is given as “reduced”. Also, in assay [4] (i.v. injection, DMM mice), the “optimal time point for diagnosis after injection” value stood at 30 min. Further, in assay [4] (i.v. injection, DMM mice), the “time after injection after which ApoPep-1 binding is undetectable” value was 8 h. Moreover, the “time after injection of maximal ApoPep-1 binding” value in assay [4] (i.v. injection, DMM mice) came to 30 min. Besides, the “fluorescent signal time course after probe injection” value in assay [4] (images from 30 minutes to 24 hours after i.v. administration, DMM mice) is “clearly detectable from arthritic joint sat 30 minutes after the probe injection and decreased according to time course”.

As to “annexin V: a 36 kDa protein that binds to phosphatidylserine, early marker of apoptotic cell death [reference compound]”, in assay [2], the “binding to apoptotic cells” value is “bind to apoptotic cells” and the “binding to live cells” value is recorded as “not to live cells”.
